Data taken from the supplement of paper PMC10307832.

Columns and labels:
Test in all cases: relative viability (nuclei count vs DMSO), 5 days (fraction); higher = more cells survive
NCI-H1648 = test system: NCI-H1648
In short: (§1)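 Nuclei were stained with Hoechst during a one-step fixation (final 0.05% Triton X-100, 1% formaldehyde, 1 ug/ml Hoechst) carried out 5 days after dosing, then counted on 4× images. The cells, lung cancer lines in 1536-well plates, had been dosed by pin tool the day after seeding with one drug alone or a fixed anchor-drug dose plus five library-drug doses (not always all listed) in √10 steps. Relative viability is the nuclei count in treated wells divided by that in vehicle wells, and each value is the median of duplicate plates.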

NCI-H1623 = test system: NCI-H1623
In short: as §1

NCI-H522 = test system: NCI-H522
In short: as §1

NCI-H1651 = test system: NCI-H1651
In short: as §1

NCI-H520 = test system: NCI-H520
In short: as §1

RERF-LC-KJ = test system: RERF-LC-KJ
In short: as §1

SMILES	relative viability (NCI-H1648; first compound 0.08 µM)	relative viability (NCI-H1648; first compound 0.8 µM)	relative viability (NCI-H1648; first compound 2.53 µM)	relative viability (NCI-H1623; first compound 0.08 µM)	relative viability (NCI-H1623; first compound 0.253 µM)	relative viability (NCI-H1623; first compound 0.8 µM)	relative viability (NCI-H1623; first compound 2.53 µM)	relative viability (NCI-H522; first compound 0.08 µM)	relative viability (NCI-H522; first compound 0.253 µM)	relative viability (NCI-H522; first compound 0.8 µM)	relative viability (NCI-H522; first compound 2.53 µM)	relative viability (NCI-H1651; first compound 0.08 µM)	relative viability (NCI-H1651; first compound 0.253 µM)	relative viability (NCI-H1651; first compound 0.8 µM)	relative viability (NCI-H1651; first compound 2.53 µM)	relative viability (NCI-H520; first compound 0.08 µM)	relative viability (NCI-H520; first compound 0.253 µM)	relative viability (NCI-H520; first compound 0.8 µM)	relative viability (NCI-H520; first compound 2.53 µM)	relative viability (RERF-LC-KJ; first compound 0.08 µM)	relative viability (RERF-LC-KJ; first compound 0.253 µM)	relative viability (RERF-LC-KJ; first compound 0.8 µM)	relative viability (RERF-LC-KJ; first compound 2.53 µM)
Oc1nc(-c2ccc(C(F)(F)F)cc2)nc2c1CSCC2 [XAV939] + COc1cccc2cc(-c3nc([C@H]4CC[C@H](C(=O)O)CC4)n4ncnc(N)c34)[nH]c12 [OSI-027] (partner 0.5 µM)	0.273	0.236	0.225	0.364	0.386	0.318	0.4	0.564	0.696	0.68	0.643	0.925	0.711	0.838	0.69	0.262	0.225	0.224	0.225	0.607	0.533	0.464	0.526
Oc1nc(-c2ccc(C(F)(F)F)cc2)nc2c1CSCC2 [XAV939] + Cc1cc(Nc2cc(N3CCN(C)CC3)nc(Sc3ccc(NC(=O)C4CC4)cc3)n2)n[nH]1 [Tozasertib] (partner 0.1 µM)	0.664	0.453	0.275	0.403	0.414	0.386	0.373	0.6	0.529	0.568	0.638	0.726	0.58	0.763	0.639	0.42	0.439	0.461	0.427	0.546	0.465	0.462	0.409
